# Test results taken from ChEMBL document CHEMBL3797052 (Eur J Med Chem, 2016).
# System: NCI-H226
# Assay: Antiproliferative activity against human NCI-H226 cells assessed as growth inhibition after 48 hrs by sulforhodamine B assay
# Type: functional
# Conditions: NCI-H226, 48 h
SMILES,GI50,TGI
CNC(=O)c1cc(Oc2ccc3nc(NC(=O)c4cc(C(F)(F)F)cc(C(F)(F)F)c4)sc3c2)ccn1,4.15 µM,17.4 µM

# Same assay, conditions: NCI-H226, 48 h, read-out: LC50 (the source's name)
row,SMILES,CC50
1,CNC(=O)c1cc(Oc2ccc3nc(NC(=O)c4cc(C(F)(F)F)cc(C(F)(F)F)c4)sc3c2)ccn1,76.2 µM

# System: KM12
# Assay: Antiproliferative activity against human KM12 cells assessed as cell growth at 10^-7 M after 48 hrs by sulforhodamine B assay
# Type: functional
# Conditions: KM12, 48 h, read-out: Activity
row,SMILES,growth at 0.1 µM
1,CNC(=O)c1cc(Oc2ccc3nc(NC(=O)c4cc(C(F)(F)F)cc(C(F)(F)F)c4)sc3c2)ccn1,99%

# System: not listed separately
# Assay: Antiproliferative activity against human HCC2998 cells assessed as cell growth at 10^-8 M after 48 hrs by sulforhodamine B assay
# Type: functional
# Conditions: HCC 2998, 48 h, read-out: Activity
row,SMILES,growth at 0.01 µM
1,CNC(=O)c1cc(Oc2ccc3nc(NC(=O)c4cc(C(F)(F)F)cc(C(F)(F)F)c4)sc3c2)ccn1,105%

# System: Malme-3M
# Assay: Antiproliferative activity against human MALME-3M cells assessed as growth inhibition after 48 hrs by sulforhodamine B assay
# Type: functional
# Conditions: not given
SMILES,GI50,TGI
CNC(=O)c1cc(Oc2ccc3nc(NC(=O)c4cc(C(F)(F)F)cc(C(F)(F)F)c4)sc3c2)ccn1,2.03 µM,6.65 µM

# Same assay, conditions: read-out: LC50 (the source's name)
row,SMILES,CC50
1,CNC(=O)c1cc(Oc2ccc3nc(NC(=O)c4cc(C(F)(F)F)cc(C(F)(F)F)c4)sc3c2)ccn1,> 100 µM

# System: not listed separately
# Assay: Antiproliferative activity against human IGROV1 cells assessed as cell growth at 10^-7 M after 48 hrs by sulforhodamine B assay
# Type: functional
# Conditions: IGROV-1, 48 h, read-out: Activity
row,SMILES,growth at 0.1 µM
1,CNC(=O)c1cc(Oc2ccc3nc(NC(=O)c4cc(C(F)(F)F)cc(C(F)(F)F)c4)sc3c2)ccn1,98%

# System: EKVX
# Assay: Antiproliferative activity against human EKVX cells assessed as cell growth at 10^-4 M after 48 hrs by sulforhodamine B assay
# Type: functional
# Conditions: read-out: Activity
row,SMILES,growth at 100 µM
1,CNC(=O)c1cc(Oc2ccc3nc(NC(=O)c4cc(C(F)(F)F)cc(C(F)(F)F)c4)sc3c2)ccn1,-27%

# System: not listed separately
# Assay: Antiproliferative activity against human OVCAR5 cells assessed as cell growth at 10^-7 M after 48 hrs by sulforhodamine B assay
# Type: functional
# Conditions: OVCAR-5, 48 h, read-out: Activity
row,SMILES,growth at 0.1 µM
1,CNC(=O)c1cc(Oc2ccc3nc(NC(=O)c4cc(C(F)(F)F)cc(C(F)(F)F)c4)sc3c2)ccn1,80%

# System: not listed separately
# Assay: Antiproliferative activity against human HCT15 cells assessed as cell growth at 10^-7 M after 48 hrs by sulforhodamine B assay
# Type: functional
# Conditions: HCT-15, 48 h, read-out: Activity
row,SMILES,growth at 0.1 µM
1,CNC(=O)c1cc(Oc2ccc3nc(NC(=O)c4cc(C(F)(F)F)cc(C(F)(F)F)c4)sc3c2)ccn1,96%

# System: not listed separately
# Assay: Antiproliferative activity against human MOLT4 cells assessed as growth inhibition after 48 hrs by sulforhodamine B assay
# Type: functional
# Conditions: MOLT-4, 48 h
SMILES,GI50,LC50,TGI
CNC(=O)c1cc(Oc2ccc3nc(NC(=O)c4cc(C(F)(F)F)cc(C(F)(F)F)c4)sc3c2)ccn1,2.61 µM,> 100 µM,12.4 µM

# System: M14
# Assay: Antiproliferative activity against human M14 cells assessed as cell growth at 10^-6 M after 48 hrs by sulforhodamine B assay
# Type: functional
# Conditions: M14, 48 h, read-out: Activity
row,SMILES,growth at 1 µM
1,CNC(=O)c1cc(Oc2ccc3nc(NC(=O)c4cc(C(F)(F)F)cc(C(F)(F)F)c4)sc3c2)ccn1,94%

# System: A498
# Assay: Antiproliferative activity against human A498 cells assessed as cell growth at 10^-7 M after 48 hrs by sulforhodamine B assay
# Type: functional
# Conditions: A498, 48 h, read-out: Activity
row,SMILES,growth at 0.1 µM
1,CNC(=O)c1cc(Oc2ccc3nc(NC(=O)c4cc(C(F)(F)F)cc(C(F)(F)F)c4)sc3c2)ccn1,67%

# System: not listed separately
# Assay: Antiproliferative activity against human HCT116 cells assessed as cell growth at 10^-8 M after 48 hrs by sulforhodamine B assay
# Type: functional
# Conditions: HCT-116, 48 h, read-out: Activity
row,SMILES,growth at 0.01 µM
1,CNC(=O)c1cc(Oc2ccc3nc(NC(=O)c4cc(C(F)(F)F)cc(C(F)(F)F)c4)sc3c2)ccn1,111%

# System: not listed separately
# Assay: Antiproliferative activity against human Hs 578T cells assessed as cell growth at 10^-4 M after 48 hrs by sulforhodamine B assay
# Type: functional
# Conditions: read-out: Activity
row,SMILES,growth at 100 µM
1,CNC(=O)c1cc(Oc2ccc3nc(NC(=O)c4cc(C(F)(F)F)cc(C(F)(F)F)c4)sc3c2)ccn1,-42%

# System: 786-0
# Assay: Antiproliferative activity against human 786-0 cells assessed as cell growth at 10^-8 M after 48 hrs by sulforhodamine B assay
# Type: functional
# Conditions: 786-0, 48 h, read-out: Activity
row,SMILES,growth at 0.01 µM
1,CNC(=O)c1cc(Oc2ccc3nc(NC(=O)c4cc(C(F)(F)F)cc(C(F)(F)F)c4)sc3c2)ccn1,98%

# System: T47D
# Assay: Antiproliferative activity against human T47D cells assessed as cell growth at 10^-6 M after 48 hrs by sulforhodamine B assay
# Type: functional
# Conditions: read-out: Activity
row,SMILES,growth at 1 µM
1,CNC(=O)c1cc(Oc2ccc3nc(NC(=O)c4cc(C(F)(F)F)cc(C(F)(F)F)c4)sc3c2)ccn1,100%

# System: KM12
# Assay: Antiproliferative activity against human KM12 cells assessed as cell growth at 10^-6 M after 48 hrs by sulforhodamine B assay
# Type: functional
# Conditions: KM12, 48 h, read-out: Activity
row,SMILES,growth at 1 µM
1,CNC(=O)c1cc(Oc2ccc3nc(NC(=O)c4cc(C(F)(F)F)cc(C(F)(F)F)c4)sc3c2)ccn1,86%

# System: M14
# Assay: Antiproliferative activity against human M14 cells assessed as cell growth at 10^-7 M after 48 hrs by sulforhodamine B assay
# Type: functional
# Conditions: M14, 48 h, read-out: Activity
row,SMILES,growth at 0.1 µM
1,CNC(=O)c1cc(Oc2ccc3nc(NC(=O)c4cc(C(F)(F)F)cc(C(F)(F)F)c4)sc3c2)ccn1,91%

# System: not listed separately
# Assay: Antiproliferative activity against human SF295 cells assessed as cell growth at 10^-4 M after 48 hrs by sulforhodamine B assay
# Type: functional
# Conditions: SF-295, 48 h, read-out: Activity
row,SMILES,growth at 100 µM
1,CNC(=O)c1cc(Oc2ccc3nc(NC(=O)c4cc(C(F)(F)F)cc(C(F)(F)F)c4)sc3c2)ccn1,-73%

# System: MDA-MB-435
# Assay: Antiproliferative activity against human MDA-MB-435 cells assessed as cell growth at 10^-8 M after 48 hrs by sulforhodamine B assay
# Type: functional
# Conditions: MDA-MB-435, 48 h, read-out: Activity
row,SMILES,growth at 0.01 µM
1,CNC(=O)c1cc(Oc2ccc3nc(NC(=O)c4cc(C(F)(F)F)cc(C(F)(F)F)c4)sc3c2)ccn1,101%

# System: not listed separately
# Assay: Antiproliferative activity against human NCI-ADR-RES cells assessed as cell growth at 10^-4 M after 48 hrs by sulforhodamine B assay
# Type: functional
# Conditions: read-out: Activity
row,SMILES,growth at 100 µM
1,CNC(=O)c1cc(Oc2ccc3nc(NC(=O)c4cc(C(F)(F)F)cc(C(F)(F)F)c4)sc3c2)ccn1,-38%

# System: not listed separately
# Assay: Antiproliferative activity against human LOXIMVI cells assessed as cell growth at 10^-4 M after 48 hrs by sulforhodamine B assay
# Type: functional
# Conditions: LOX IMVI, read-out: Activity
row,SMILES,growth at 100 µM
1,CNC(=O)c1cc(Oc2ccc3nc(NC(=O)c4cc(C(F)(F)F)cc(C(F)(F)F)c4)sc3c2)ccn1,-51%
